Reference: PubChem BioAssay AID248 (DTP/NCI, 2004)
“And” between values parts separate entries of the source, which are not always exact repeats. Identical values can stand only once. Inconclusive results and toxic doses are left out. Cut-off read from the data, not from the text of the source: active = T/C of 150% or more; inactive = T/C below 125%.

Tested on: L1210 leukemia ip in BDF1 mice, survival T/C
Experiment: NCI In Vivo Anticancer Drug Screen. Data for tumor model L1210 Leukemia (intraperitoneal) in B6D2F1 (BDF1) mice
Settings: endpoint: mean survival time, higher = longer survival
Summary of the method: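 Transplantable tumor model; survival measured in treated vs vehicle control mice. Value = treated/control.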

[1] = dose: 100.0 mg/kg/injection, schedule: Q01DX009 (ip), vehicle: Klucel (hydroxypropylcellulose) (HPC)
[2] = dose: 100.0 mg/kg/injection, schedule: Q04DX003 (ip), vehicle: Klucel (hydroxypropylcellulose) (HPC)
[3] = dose: 200.0 mg/kg/injection, schedule: Q01DX009 (ip), vehicle: Klucel (hydroxypropylcellulose) (HPC)
[4] = dose: 200.0 mg/kg/injection, schedule: Q04DX003 (ip), vehicle: Klucel (hydroxypropylcellulose) (HPC)
[5] = dose: 400.0 mg/kg/injection, schedule: Q01DX009 (ip), vehicle: Klucel (hydroxypropylcellulose) (HPC)
[6] = dose: 400.0 mg/kg/injection, schedule: Q04DX003 (ip), vehicle: Klucel (hydroxypropylcellulose) (HPC)
[7] = dose: 50.0 mg/kg/injection, schedule: Q01DX009 (ip), vehicle: saline with Tween-80
[8] = dose: 100.0 mg/kg/injection, schedule: Q04DX003 (ip), vehicle: saline with Tween-80
[9] = dose: 200.0 mg/kg/injection, schedule: Q04DX003 (ip), vehicle: saline with Tween-80
[10] = dose: 100.0 mg/kg/injection, schedule: Q04DX003 (ip), vehicle: saline
[11] = dose: 200.0 mg/kg/injection, schedule: Q04DX003 (ip), vehicle: saline
[12] = dose: 400.0 mg/kg/injection, schedule: Q04DX003 (ip), vehicle: saline
[13] = dose: 100.0 mg/kg/injection, schedule: Q01DX009 (ip), vehicle: saline with Tween-80
[14] = dose: 200.0 mg/kg/injection, schedule: Q01DX009 (ip), vehicle: saline with Tween-80
[15] = dose: 100.0 mg/kg/injection, schedule: Q01DX001 (ip), vehicle: saline
[16] = dose: 200.0 mg/kg/injection, schedule: Q01DX001 (ip), vehicle: saline
[17] = dose: 400.0 mg/kg/injection, schedule: Q01DX001 (ip), vehicle: saline

Measured: T/C

COc1cc(NC(=O)CC(C)=O)cc2c(C)cc(=O)n(C)c12
inactive: [1] 101 % of control | [2] 106 % of control | [3] 98 % of control | [4] 89 % of control | [5] 91 % of control | [6] 94 % of control

OCC1OC(n2ncc3nccnc32)C(O)C1O (stereo not given)
inactive: dose: 50.0 mg/kg/injection, schedule: Q01DX005 (ip), vehicle: other 105 % of control | dose: 100.0 mg/kg/injection, schedule: Q01DX005 (ip), vehicle: other 105 % of control | dose: 200.0 mg/kg/injection, schedule: Q01DX005 (ip), vehicle: other 91 % of control

CC#CC(=O)SCCNC(=O)CC
inactive: dose: 25.0 mg/kg/injection, schedule: Q01DX009 (ip), vehicle: saline with Tween-80 104 % of control | [7] 96 % of control | [8] 103 % of control | [9] 91 % of control

CCCCCCC1CCC(CCCCCCCC(=O)N2CCN(C)CC2)C(C/C=C/CCCCCCCC(=O)N2CCN(C)CC2)C1CCCCC (stereo not given)
inactive: dose: 75.0 mg/kg/injection, schedule: Q01DX001 (ip), vehicle: saline 94 % of control | dose: 150.0 mg/kg/injection, schedule: Q01DX001 (ip), vehicle: saline 103 % of control | dose: 300.0 mg/kg/injection, schedule: Q01DX001 (ip), vehicle: saline 95 % of control

CCCCCCCCS(=O)(=O)CCO
inactive: dose: 100.0 mg/kg/injection, schedule: Q01DX009 (ip), vehicle: carboxymethylcellulose (CMC) 93 % of control | dose: 100.0 mg/kg/injection, schedule: Q04DX003 (ip), vehicle: carboxymethylcellulose (CMC) 106 % of control | dose: 200.0 mg/kg/injection, schedule: Q01DX009 (ip), vehicle: carboxymethylcellulose (CMC) 90 % of control | dose: 200.0 mg/kg/injection, schedule: Q04DX003 (ip), vehicle: carboxymethylcellulose (CMC) 101 % of control | dose: 400.0 mg/kg/injection, schedule: Q01DX009 (ip), vehicle: carboxymethylcellulose (CMC) 95 % of control | dose: 400.0 mg/kg/injection, schedule: Q04DX003 (ip), vehicle: carboxymethylcellulose (CMC) 106 % of control

Cc1ccc([N+](=O)[O-])cc1N=C=O
inactive: [1] 87 % of control | [2] 96 % of control | [3] 91 % of control | [4] 97 % of control | [5] 97 % of control | [6] 97 % of control

CC1(C)OC2OC(COC(=S)Sc3ccc([N+](=O)[O-])cc3[N+](=O)[O-])C3OC(C)(C)OC3C2O1 (stereo not given)
inactive: dose: 6.25 mg/kg/injection, schedule: Q04DX002 (ip), vehicle: saline 95 % of control | dose: 12.5 mg/kg/injection, schedule: Q04DX002 (ip), vehicle: saline 98 % of control | dose: 25.0 mg/kg/injection, schedule: Q04DX002 (ip), vehicle: saline 106 % of control and 91 % of control | dose: 50.0 mg/kg/injection, schedule: Q04DX002 (ip), vehicle: saline 120 % of control | dose: 100.0 mg/kg/injection, schedule: Q04DX002 (ip), vehicle: saline 100 % of control

O=[N+]([O-])c1ccc(O)c(N=Cc2ccc(C=Nc3cc([N+](=O)[O-])ccc3O)cc2)c1
inactive: [1] 95 % of control and 86 % of control | [3] 97 % of control | [5] 103 % of control and 90 % of control

CCCCC1=Cc2cc3c(cc2C1N(C)C)OCO3 (stereo not given)
inactive: dose: 6.25 mg/kg/injection, schedule: Q04DX002 (ip), vehicle: Klucel (hydroxypropylcellulose) (HPC) 102 % of control | dose: 12.5 mg/kg/injection, schedule: Q04DX002 (ip), vehicle: Klucel (hydroxypropylcellulose) (HPC) 99 % of control | dose: 25.0 mg/kg/injection, schedule: Q04DX002 (ip), vehicle: Klucel (hydroxypropylcellulose) (HPC) 95 % of control and 105 % of control | dose: 100.0 mg/kg/injection, schedule: Q04DX002 (ip), vehicle: Klucel (hydroxypropylcellulose) (HPC) 92 % of control

O=NN1C(=O)N(CCCl)C(=O)C1(c1ccccc1)c1ccccc1
inactive: [10] 96 % of control | [11] 97 % of control | [12] 102 % of control

O=C(NCCCl)NC1CCC(O)CC1 (stereo not given)
inactive: [10] 107 % of control | [11] 100 % of control | [12] 100 % of control

O=C(Nc1ccc(Cl)cc1Cl)Oc1ccc(F)cc1
inactive: [7] 94 % of control | [13] 94 % of control | [14] 102 % of control

CCn1c(Cl)c(C(=O)O)c2ccccc21
inactive: dose: 50.0 mg/kg/injection, schedule: Q04DX003 (ip), vehicle: Klucel (hydroxypropylcellulose) (HPC) 97 % of control | [2] 97 % of control | [4] 97 % of control

CC(C)c1cc(C(C)C)c(S(=O)(=O)Cl)c(C(C)C)c1
inactive: dose: 50.0 mg/kg/injection, schedule: Q01DX001 (ip), vehicle: saline 98 % of control | [15] 95 % of control | [16] 95 % of control | [17] 98 % of control

Cc1ncc(C#N)c(C)n1
inactive: [15] 107 % of control | [16] 102 % of control | [17] 107 % of control

Cc1ccc(Oc2ccc([N+](=O)[O-])cc2[N+](=O)[O-])cc1C
inactive: dose: 222.0 mg/kg/injection, schedule: Q01DX Z (ip), vehicle: methylcellulose (MC) 90 % of control | dose: 333.0 mg/kg/injection, schedule: Q01DX Z (ip), vehicle: methylcellulose (MC) 92 % of control | dose: 500.0 mg/kg/injection, schedule: Q01DX Z (ip), vehicle: methylcellulose (MC) 92 % of control

COc1cc(C)cc(C(=O)O)c1
inactive: dose: 100.0 mg/kg/injection, schedule: Q04DX002 (ip), vehicle: saline with Tween-80 97 % of control | dose: 200.0 mg/kg/injection, schedule: Q04DX002 (ip), vehicle: saline with Tween-80 101 % of control | dose: 400.0 mg/kg/injection, schedule: Q04DX002 (ip), vehicle: saline with Tween-80 101 % of control

CC(C)/C=N/N=C(N)N
inactive: dose: 120.0 mg/kg/injection, schedule: Q01DX Z (oral), vehicle: saline 113 % of control | dose: 240.0 mg/kg/injection, schedule: Q01DX Z (oral), vehicle: saline 104 % of control

CN(C(=O)COc1ccc(N2C(N)=NC(N)=NC2(C)C)cc1Cl)c1ccc(S(=O)(=O)F)cc1
inactive: dose: 100.0 mg/kg/injection, schedule: Q01DX001 (ip), vehicle: saline with Tween-80 112 % of control | dose: 200.0 mg/kg/injection, schedule: Q01DX001 (ip), vehicle: saline with Tween-80 102 % of control | dose: 400.0 mg/kg/injection, schedule: Q01DX001 (ip), vehicle: saline with Tween-80 105 % of control

Oc1ccc(C2N(c3ccccc3)CCN2c2ccccc2)cc1
inactive: [13] 111 % of control | [8] 92 % of control | [14] 103 % of control | [9] 97 % of control | dose: 400.0 mg/kg/injection, schedule: Q01DX009 (ip), vehicle: saline with Tween-80 89 % of control | dose: 400.0 mg/kg/injection, schedule: Q04DX003 (ip), vehicle: saline with Tween-80 101 % of control

C1CC2CCC[N]3C2C(C1)[O][Pb]31[O]C2CCCC3CCC[N]1C32 (stereo not given)
inactive: dose: 30.0 mg/kg/injection, schedule: Q01DX015 (ip), vehicle: carboxymethylcellulose (CMC) 91 % of control | dose: 60.0 mg/kg/injection, schedule: Q01DX015 (ip), vehicle: carboxymethylcellulose (CMC) 90 % of control | [1] 97 % of control | [2] 95 % of control | [3] 92 % of control | [4] 94 % of control | [6] 98 % of control

C/C(=N/OC(=O)N(C)C)c1cccs1
inactive: dose: 5.0 mg/kg/injection, schedule: Q01DX001 (ip), vehicle: other 103 % of control | dose: 10.0 mg/kg/injection, schedule: Q01DX001 (ip), vehicle: other 94 % of control | dose: 20.0 mg/kg/injection, schedule: Q01DX001 (ip), vehicle: other 97 % of control | dose: 40.0 mg/kg/injection, schedule: Q01DX001 (ip), vehicle: other 92 % of control

NCCc1cc(O)c(O)c(O)c1
inactive: dose: 50.0 mg/kg/injection, schedule: Q01DX009 (ip), vehicle: saline 104 % of control | dose: 100.0 mg/kg/injection, schedule: Q01DX009 (ip), vehicle: saline 113 % of control

O=C(O)Cc1csc2ccccc12
inactive: dose: 100.0 mg/kg/injection, schedule: Q01DX001 (ip), vehicle: other 100 % of control | dose: 200.0 mg/kg/injection, schedule: Q01DX001 (ip), vehicle: other 97 % of control | dose: 400.0 mg/kg/injection, schedule: Q01DX001 (ip), vehicle: other 103 % of control

COc1ccc2c(c1)CCC1C2CCC2(C)C1CCC21CCNP(=O)(N(CCCl)CCCl)O1 (stereo not given)
inactive: [2] 101 % of control | [4] 103 % of control | [6] 92 % of control
